The record followed here is patent US11945796B2, “Substituted pyridine derivatives as SARM1 inhibitors” (Nura Bio, Inc., priority 2020, dated 2024).

The target of the test is T1, human SARM1(50-724) (Homo sapiens, UniProt Q6SZW1).
T1 construct: 40 nM human SARM1(50-724)
T1 sequence (Q6SZW1 50-724): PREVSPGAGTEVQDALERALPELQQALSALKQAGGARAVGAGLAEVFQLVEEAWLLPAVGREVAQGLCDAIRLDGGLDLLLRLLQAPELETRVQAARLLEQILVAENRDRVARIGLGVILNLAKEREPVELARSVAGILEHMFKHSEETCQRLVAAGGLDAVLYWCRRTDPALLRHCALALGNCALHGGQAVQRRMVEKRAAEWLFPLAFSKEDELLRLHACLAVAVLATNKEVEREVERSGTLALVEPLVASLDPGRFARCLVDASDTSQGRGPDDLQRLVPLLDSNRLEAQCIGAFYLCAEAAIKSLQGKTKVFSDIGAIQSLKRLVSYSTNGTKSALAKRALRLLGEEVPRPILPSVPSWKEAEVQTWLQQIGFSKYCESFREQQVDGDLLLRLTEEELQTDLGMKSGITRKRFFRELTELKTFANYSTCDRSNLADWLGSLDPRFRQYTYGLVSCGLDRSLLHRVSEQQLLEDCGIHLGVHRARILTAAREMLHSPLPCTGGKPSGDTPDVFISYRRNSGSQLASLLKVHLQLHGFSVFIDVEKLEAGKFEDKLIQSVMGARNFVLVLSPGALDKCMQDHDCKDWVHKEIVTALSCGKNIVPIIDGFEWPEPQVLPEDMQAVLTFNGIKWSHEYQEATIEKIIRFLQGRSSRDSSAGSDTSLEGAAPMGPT
Put plainly: SARM1 NADase biochemical assay (HPLC peak areas of NAD and NAM). The following applies: for IC50: dose-response, 1:3 serial dilution from 100 μM, 40 nM SARM1, 0.3 mM NMN, 20 μM NAD, 60 min rt. The protocol:
The reaction was incubated at room temperature for 60 minutes and quenched with 20 μL of 0.4% formic acid. […] Total run time for each sample was 4 minutes. […] Samples were run at a flow rate of 0.8 mL/min at 55° C. Peak areas of NAD and NAM were determined using OpenLAB CDS (Chem Station edition) software. For dose-response, the compound was diluted serially 1:3 in DMSO and added to the reaction starting at a final compound concentration of 100 μM in 1% DMSO.

Where [1] appears, read: 50 μM compound, NAD peak area, read-out: Avg NAD % inhibition at 50 μM.
Where [2] appears, read: 50 μM compound, NAM peak area, read-out: Avg NAM % inhibition at 50 μM.

Read-outs that look alike come from different tables or passages of the source.

Usually inhibition stands for the share of the control response that was lost under treatment. With `c1cc(Cn2ccc(NCC3CC3)n2)ccn1` [Example 93, N-(Cyclopropylmethyl)-1-(pyridin-4-ylmethyl)-1H-pyrazol-3-amine], the inhibition at 50 µM is, setting by setting: under setting [1], 0 to 50%; under setting [2], 0 to 50%.
For `Cc1ccc(C(=O)Nc2ccn(Cc3ccncc3)n2)cc1` [Example 50, 4-Methyl-N-(1-(pyridin-4-ylmethyl)-1H-pyrazol-3-yl)benzamide], the inhibition at 50 µM under setting [1] was in the range of 0 to 50% and the inhibition at 50 µM under setting [2] lay in the range of 0 to 50%.
On to `Cc1ccccc1C(=O)Nc1ccn(Cc2ccncc2)n1` [Example 48, 2-Methyl-N-(1-(pyridin-4-ylmethyl)-1H-pyrazol-3-yl)benzamide], for which the inhibition at 50 µM by setting is: under setting [1], 0 to 50%; under setting [2], 0 to 50%.
Usually IC50 stands for the concentration that inhibits the measured activity by half. A low value points to greater potency in that assay. Consider “(S)-4-(1-(1-(2,2,2-Trifluoroethyl)-1H-pyrazol-3-yl)ethyl)pyridine and (R)-4-(1-(1-(2,2,2-Trifluoroethyl)-1H-pyrazol-3-yl)ethyl)pyridine [Example 13a]”, for which the IC50 was less than 1 µM.
On the same count and under the same terms, under `CC(c1ccn(CC(F)(F)F)n1)c1ccncc1Cl` (racemic) [Example 112, (rac)-3-Chloro-4-(1-(1-(2,2,2-trifluoroethyl)-1H-pyrazol-3-yl)ethyl)pyridine] stands 1 to 10 µM.
On the same count and under the same terms, as for `FC(F)(F)C(F)(F)c1ccn(Cc2ccncc2)n1` [Example 103, 4-{[3-(1,1,2,2,2-Pentafluoroethyl)-1H-pyrazol-1-yl]methyl}pyridine], the figure is 1 to 10 µM; as for `Cc1cnccc1Cn1ccc(CC(F)(F)F)n1` [Example 109, 3-Methyl-4-{[3-(2,2,2-trifluoroethyl)-1H-pyrazol-1-yl]methyl}pyridine], 1 to 10 µM.
On to `O=C(Nc1ccn(Cc2ccncc2)n1)c1ccccc1F` [Example 58, 2-Fluoro-N-(1-(pyridin-4-ylmethyl)-1H-pyrazol-3-yl)benzamide], for which the inhibition at 50 µM lay in the range of 0 to 50% under setting [1] and 0 to 50% under setting [2].
As for “(S)—N-(2,2-Difluoroethyl)-1-(1-(pyridin-4-yl)ethyl)-1H-pyrazol-3-amine and (R)—N-(2,2-Difluoroethyl)-1-(1-(pyridin-4-yl)ethyl)-1H-pyrazol-3-amine [Example 8a]”, under “50 μM compound, NAD peak area”, the “Avg NAD % inhibition at 50 μM” value is “* (% Inhibition 0-50%)”. Also, the “Avg NAM % inhibition at 50 μM” value (50 μM compound, NAM peak area) is “* (% Inhibition 0-50%)”.
Turning to `O=C(Nc1ccn(Cc2ccncc2)n1)C(F)(F)F` [Example 68, 2,2,2-Trifluoro-N-(1-(pyridin-4-ylmethyl)-1H-pyrazol-3-yl)acetamide], the half-maximal inhibitory concentration (IC50) is 10 to 100 µM.
Same read-out and setting: as for `FC(F)Cn1ccc(Cc2ccncc2)n1` [Example 10, 4-((1-(2,2-Difluoroethyl)-1H-pyrazol-3-yl)methyl)pyridine], the figure is 1 to 10 µM; as for `C[C@@H](c1ccncc1)n1ccc(NCC(F)(F)F)n1` [Example 2, (S)-1-(1-(Pyridin-4-yl)ethyl)-N-(2,2,2-trifluoroethyl)-1H-pyrazol-3-amine], less than 1 µM.
Turning to `O=C(Nc1ccn(Cc2ccncc2)n1)c1ccc2c(c1)OCCO2` [Example 37, N-(1-(Pyridin-4-ylmethyl)-1H-pyrazol-3-yl)-2,3-dihydrobenzo[b][1,4]dioxine-6-carboxamide], the inhibition at 50 µM under setting [1] is 0 to 50% and the inhibition at 50 µM under setting [2] fell in the range of 0 to 50%.
On to `CNc1ccn(Cc2ccncc2)n1` [Example 86, N-Methyl-1-(pyridin-4-ylmethyl)-1H-pyrazol-3-amine], for which the inhibition at 50 µM was 0 to 50% under setting [1] and 0 to 50% under setting [2].
Take `c1cc(Cn2ccc(NCC3CCC3)n2)ccn1` [Example 95, N-(Cyclobutylmethyl)-1-(pyridin-4-ylmethyl)-1H-pyrazol-3-amine]: the inhibition at 50 µM under setting [1] lay within 0 to 50% and the inhibition at 50 µM under setting [2] was 0 to 50%.
For “(R)-4-(1-(1-(2,2-Difluoroethyl)-1H-pyrazol-3-yl)ethyl)pyridine and (S)-4-(1-(1-(2,2-Difluoroethyl)-1H-pyrazol-3-yl)ethyl)pyridine [Example 111]”, the IC50 is 1 to 10 µM.
In turn, `O=C(Nc1ccn(Cc2ccncc2)n1)C(C(F)(F)F)C(F)(F)F` [Example 15, 3,3,3-trifluoro-N-(1-(pyridin-4-ylmethyl)-1H-pyrazol-3-yl)-2-(trifluoromethyl)propanamide] yielded an IC50 of 1 to 10 µM.
On the same count and under the same terms, under “(R)-3-Chloro-4-(1-(1-(2,2,2-trifluoroethyl)-1H-pyrazol-3-yl)ethyl)pyridine and (S)-3-Chloro-4-(1-(1-(2,2,2-trifluoroethyl)-1H-pyrazol-3-yl)ethyl)pyridine [Example 113]” stands 1 to 10 µM; under `O=C(Nc1ccn(Cc2ccncc2)n1)C1COc2ccccc2C1` (stereo not drawn) [Example 63, N-(1-(Pyridin-4-ylmethyl)-1H-pyrazol-3-yl)chromane-3-carboxamide], 1 to 10 µM.
The same measure, in the same setting: under `FC(c1ccncc1)c1ccn(CC(F)(F)F)n1` (racemic) [Example 79, (rac)-4-(Fluoro(1-(2,2,2-trifluoroethyl)-1H-pyrazol-3-yl)methyl)pyridine] stands 10 to 100 µM.
As to `O=C(Nc1ccn(Cc2ccncc2)n1)c1ccc(O)cc1` [Example 45, 4-Hydroxy-N-(1-(pyridin-4-ylmethyl)-1H-pyrazol-3-yl)benzamide], the inhibition at 50 µM under setting [1] lay in the range of 0 to 50% and the inhibition at 50 µM under setting [2] lay within 0 to 50%.
With `O=C(CCc1ccc(Cl)cc1)Nc1ccn(Cc2ccncc2)n1` [Example 106, 3-(4-Chlorophenyl)-N-{1-[(pyridin-4-yl)methyl]-1H-pyrazol-3-yl}propanamide], the inhibition at 50 µM was in the range of 0 to 50% under setting [1] and 0 to 50% under setting [2].
Consider `CC(c1ccncc1)n1ccc(Nc2nccs2)n1` (racemic) [Example 1, (rac)-N-(1-(1-(Pyridin-4-yl)ethyl)-1H-pyrazol-3-yl)thiazol-2-amine], for which the half-inhibitory concentration (IC50) is less than 1 µM.
The same measure, in the same setting: under `[2H]C(C)(c1ccncc1)c1ccn(CC(F)(F)F)n1` (racemic) [Example 82, (rac)-4-(1-(1-(2,2,2-Trifluoroethyl)-1H-pyrazol-3-yl)ethyl-1-d)pyridine] stands less than 1 µM.
In turn, `CC(c1ccncc1)c1ccn(CC#N)n1` (single isomer, unassigned) [Example 12a] had an IC50 of 1 to 10 µM.
Turning to “(R)-4-(1-(1-(2,2-Difluoroethyl)-1H-pyrazol-3-yl)ethyl-2,2,2-d3)pyridine and (S)-4-(1-(1-(2,2-Difluoroethyl)-1H-pyrazol-3-yl)ethyl-2,2,2-d3)pyridine [Example 114]”, the “Avg NAD % inhibition at 50 μM” value (50 μM compound, NAD peak area) is “* (% Inhibition 0-50%)”. Further, the “Avg NAM % inhibition at 50 μM” value (50 μM compound, NAM peak area) is given as “* (% Inhibition 0-50%)”.
Consider `FC(c1ccncc1)n1ccc(CC(F)(F)F)n1` (racemic) [Example 105, (rac)-4-{Fluoro[3-(2,2,2-trifluoroethyl)-1H-pyrazol-1-yl]methyl}pyridine], for which the inhibition at 50 µM is, setting by setting: (read-out: Avg NAD % inhibition at 50 μM) 0 to 50%; (read-out: Avg NAM % inhibition at 50 μM) 0 to 50%.
As for `Cc1cc(C(=O)Nc2ccn(Cc3ccncc3)n2)cs1` [Example 67, 5-Methyl-N-(1-(pyridin-4-ylmethyl)-1H-pyrazol-3-yl)thiophene-3-carboxamide], the inhibition at 50 µM under setting [1] fell in the range of 51 to 100% and the inhibition at 50 µM under setting [2] was in the range of 0 to 50%.
Consider “(S)-2-(1-(1-(Pyridin-4-yl)ethyl)-1H-pyrazol-3-yl)acetonitrile and (R)-2-(1-(1-(Pyridin-4-yl)ethyl)-1H-pyrazol-3-yl)acetonitrile [Example 27]”, for which the IC50 was 1 to 10 µM.
